Literature values as cited in US6995188B2 (priority 2002, dated 2006).
Read-outs that look alike come from different tables or passages of the source.

Assays:
[1] = system: P388 lymphocytic leukemia cells; conditions: mouse, in vivo, ip, cited from earlier work
[2] = system: APL and non-APL cell lines; conditions: compared with arsenic trioxide; cited from earlier work
[3] = system: patients with advanced leukemia; conditions: 8 patients, 3 days per week for 3 consecutive weeks; cited from earlier work

CCC[As](CCC)S[C@@H]1O[C@H](COC(C)=O)[C@@H](OC(C)=O)[C@H](OC(C)=O)[C@H]1OC(C)=O [Compound 2, 2,3,4,6-tetra-O-acetyl-1-S-dipropylarsino-1-thio-β-D-glucopyranose]
% T/C ([1]; 200 mg/kg): 124%

CCCCCCCCCCCCCCCC[As](CCCCCCCCCCCCCCCC)S[C@@H]1O[C@H](COC(C)=O)[C@@H](OC(C)=O)[C@H](OC(C)=O)[C@H]1OC(C)=O [Compound 5, 2,3,4,6-tetra-O-acetyl-1-S-dihexadecylarsino-1-thio-β-D-glucopyranose]
% T/C ([1]; 50 mg/kg): 125%

CCCC[As](CCCC)S[C@@H]1O[C@H](COC(C)=O)[C@@H](OC(C)=O)[C@H](OC(C)=O)[C@H]1OC(C)=O [Compound 1, 2,3,4,6-tetra-O-acetyl-1-S-dibutylarsino-1-thio-β-D-glucopyranose]
% T/C ([1]; 100 mg/kg): 117%

CC(=O)N[C@H]1[C@@H](OC(C)=O)O[C@H](CS[As](C)C)[C@@H](OC(C)=O)[C@@H]1OC(C)=O [Compound 20, 2-acetamido-1,3,4-tri-O-acetyl-2-deoxy-6-S-dimethylarsino-6-thio-α-D-glucopyranose]
% T/C ([1]; 100 mg/kg): 136%

2,3,4,6-tetra-O-acetyl-1-S-hydroxyethylmethyl-1-thio-β-D-glucopyranose [Compound 4]
% T/C ([1]; 100 mg/kg): 116%

CC(C)CCC[C@@H](C)[C@H]1CC[C@H]2[C@@H]3CC=C4C[C@@H]([Se][As](C)C)CC[C@]4(C)[C@H]3CC[C@]12C [Compound 15, Se-dimethylarsino-selenocholesterol]
% T/C ([1]; 200 mg/kg): 129%

CC[As](CC)S[C@@H]1O[C@H](COC(C)=O)[C@@H](OC(C)=O)[C@H](OC(C)=O)[C@H]1OC(C)=O [Compound 3, 2,3,4,6-tetra-O-acetyl-1-S-diethylarsino-1-thio-β-D-glucopyranose]
% T/C ([1]; 100 mg/kg): 180%

Nc1nc(N)nc(Nc2ccc([As]3SCC(CO)S3)cc2)n1 (centres unmarked) [melarsoprol]
activity against APL and non-APL cell lines [2]: activity at least equivalent to that of arsenic trioxide | antitumor effects [3]: Only one patient (with chronic lymphocytic leukemia) displayed antitumor effects | side effects [3]: most experienced neurological side effects

CC(=O)OC[C@H]1O[C@@H](S[As](C)C)[C@H](OC(C)=O)[C@@H](OC(C)=O)[C@H]1OC(C)=O [Compound 16, 2,3,4,6-tetra-O-acetyl-1-S-dimethylarsino-1-thio-β-D-galactopyranose]
% T/C ([1]; 100 mg/kg): 129%

CC(=O)OC[C@H]1O[C@@H](S[As](C2CCCCC2)C2CCCCC2)[C@H](OC(C)=O)[C@@H](OC(C)=O)[C@@H]1OC(C)=O [Compound 6, 2,3,4,6-tetra-O-acetyl-1-S-dicyclohexylarsino-1-thio-β-D-glucopyranose]
% T/C ([1]; 400 mg/kg): Toxic

CC(=O)N[C@@H]1[C@@H](OC(C)=O)[C@H](OC(C)=O)[C@@H](COC(C)=O)O[C@H]1S[As](C)C [Compound 18, 2-acetamido-3,4,6-tri-O-acetyl-2-deoxy-1-S-dimethylarsino-1-thio-β-D-glucopyranose]
% T/C ([1]; 50 mg/kg): 136%

C[As](C)SCC(N)C(=O)O (racemic) [Compound 10, S-dimethylarsino-DL-cysteine]
% T/C ([1]; 50 mg/kg): 110%
